Assay results from US20110004021A1, “THIAZOLECARBOXANILIDES” (priority 2005, published 2011).

Tested on: Alternaria solani
Test: Activity against early blight of tomato caused by Alternaria solani
Type: in vivo
Details: tomato cultivar Goldene Königin, protective spray 4 ppm, infected next day, assessed after 5 days; untreated plants 90% infected
Method: The active compounds were prepared as a stock solution comprising 25 mg of active compound which was filled up to 10 ml with a mixture of acetone and/or dimethyl sulfoxide and the emulsifier Uniperol® EL (wetting agent having an emulsifying and dispersing action based on ethoxylated alkylphenols) in a solvent/emulsifier volume ratio of 99 to 1. The solution was then made up to 100 ml with water. This stock solution was diluted with the solvent/emulsifier/water mixture described to the active compound concentration given below.
Leaves of potted plants of the cultivar “Goldene Königin” were sprayed to runoff point with an aqueous suspension having the concentration of active compounds stated below. The next day, the leaves were infected with an aqueous spore suspension of Alternaria solani in 2% biomalt solution having a density of 0.12×10^6 spores/ml. The plants were then placed in a water-vapor-saturated chamber at temperatures of between 20 and 22° C. After 5 days, the infection on the untreated, but infected control plants had developed to such an extent that the infection could be determined visually in %.

Row | Compound | infection
1 | Cc1nc(C(F)(F)F)c(C(=O)Nc2ccccc2-c2ccc(F)c(F)c2)s1 | 20%
2 | Cc1nc(C(F)(F)F)c(C(=O)Nc2ccccc2-c2cc(F)c(F)c(F)c2)s1 [I.1, N-(3′,4′,5′-Trifluorobiphenyl-2-yl)-2-methyl-4-trifluoromethylthiazole-5-carboxamide] | at most 7%
